The results in this text go back to ChEMBL document CHEMBL1137198, “Discovery of thiadiazoles as a novel structural class of potent and selective PDE7 inhibitors. Part 2: metabolism-directed optimization studies towards orally bioavailable derivatives” (Bioorg Med Chem Lett, 2004).

A short description of data set [1]: Volume of distribution at 0.5 mg/kg i.v. In kind it is ADME, organism-based. The arrangement: dose 0.5 mg/kg, route intravenous. As to conditions: in vivo, iv.
Data set [2] in a line: Half life at 2.5 mg/kg po. In kind it is ADME, organism-based. The arrangement: dose 2.5 mg/kg. As to conditions: in vivo.
Data set [3] is described as follows: Oral bioavailability (dose 2.5 mg/kg). Format: ADME, organism-based. As to conditions: eutheria, in vivo.
Data set [4] is described as follows: Solubility at pH 7.4. Format: physicochemical. As to conditions: buffer.
A short description of data set [5]: Clearance at 0.5 mg/kg i.v. In kind it is ADME, organism-based. The arrangement: dose 0.5 mg/kg, route intravenous. Conditions: in vivo, iv.
A short description of data set [6]: Reduction in Clearance when compared with compound 1. Format: ADME, organism-based. As to conditions: in vivo.
Data set [7] in a line: Reduction in clearance when compared with compound 1. In kind it is ADME, organism-based. As to conditions: in vivo.
Data set [8] is described as follows: Inhibition of human Phosphodiesterase 7A1 or human phosphodiesterase 4D3 expressed in baculovirus infected Sf9 cells.

Converted amounts (≈) assume the structure as drawn.

In the case of `Cn1nc(-c2ccc(Cl)cc2)s/c1=N\c1ccc(F)c(C(=O)O)c1`, the Vd (usually a proportionality between amount in the body and measured concentration, not a real space) in data set [1] (read-out: Vd) was determined as 0.18 L/kg. Further, the half-life (usually how long it takes for the measured level to halve) in data set [2] was 1.96 h. For the same molecule, the bioavailability (commonly the share of a dose that reaches the circulation, judged against a reference dose that is usually intravenous) in data set [3] came to 49.3%. In data set [4] (read-out: Solubility), the solubility (commonly the dissolved amount per volume that the medium holds) is 145 µg/mL (≈ 399 µM). The clearance (usually a measure of how efficiently the substance is removed, as volume per time) in data set [5] was 3.9 mL/min/kg.
In the case of `Cn1nc(-c2ccc(C(=O)NC(C)(C)CO)cc2)s/c1=N\C1CCCC(O)C1` (centres undefined), the CL_Ratio in data set [6] is on record as 86%. Besides, in data set [1] (read-out: Vd), the Vd amounted to 0.43 L/kg. The same molecule had a half-life in data set [2] of 0.46 h. Besides, the bioavailability in data set [3] was determined as 63%. The solubility in data set [4] (read-out: Solubility) was 58 µg/mL (≈ 143 µM). In data set [5], the clearance was 24.9 mL/min/kg.
As for `Cn1nc(-c2ccc(C(N)=O)cc2)s/c1=N\C1CCCCC1`, in data set [1] (read-out: Vd), the Vd was determined as 7.65 L/kg. Moreover, the solubility in data set [4] (read-out: Solubility) is 4 µg/mL (≈ 12.6 µM). The molecule also registered a clearance in data set [5] of 179 mL/min/kg.
On to `Cn1nc(-c2ccc(C(N)=O)cc2)s/c1=N\C1CCC(O)CC1` (centres undefined), for which, in data set [1] (read-out: Vd), the Vd was determined as 0.98 L/kg. This molecule had a half-life in data set [2] of 0.27 h. In addition, the bioavailability in data set [3] amounted to 7%. In addition, the CL_Ratio in data set [7] was 62%. This molecule also returned a clearance in data set [5] of 66.9 mL/min/kg.
With `CN1CCN(C(=O)c2ccc(-c3nn(C)/c(=N/C4CCCCC4)s3)cc2)CC1`, in data set [6], the CL_Ratio came out at 75%. The Vd in data set [1] (read-out: Vd) stood at 2.59 L/kg. For the same molecule, in data set [2], the half-life is 1.37 h. The molecule further came in with a bioavailability in data set [3] of 85%. Besides, in data set [4] (read-out: Solubility), the solubility turned out to be 350 µg/mL (≈ 876 µM). The same molecule returned a clearance in data set [5] of 44.8 mL/min/kg.
`CC(=O)Nc1ccc(-c2nn(C)/c(=N/C3CCCCC3)s2)cc1`: the CL_Ratio in data set [6] was determined as 58%. Also, the Vd in data set [1] (read-out: Vd) came to 3.3 L/kg. The half-life in data set [2] was 0.74 h. In data set [3], this molecule displayed a bioavailability of 19.6%. Besides, in data set [4] (read-out: Solubility), the solubility is 8 µg/mL (≈ 24.2 µM). Also, the clearance in data set [5] came to 74.7 mL/min/kg.
For `Cn1nc(-c2cccc(C#N)c2)s/c1=N\c1cccc(C(=O)O)c1`, in data set [1] (read-out: Vd), the Vd amounted to 0.99 L/kg. The same molecule had a half-life in data set [2] of 4.75 h. The bioavailability in data set [3] turned out to be 37%. In addition, in data set [4] (read-out: Solubility), the solubility was found to be 295 µg/mL (≈ 877 µM). Further, the clearance in data set [5] was determined as 2.65 mL/min/kg.
For `Cn1nc(-c2ccc(S(C)(=O)=O)cc2)s/c1=N\c1cccc(C(=O)O)c1`, in that order: 7.58 L/kg, 2.7 h, 29.3%, 370 µg/mL (≈ 950 µM) and 15.8 mL/min/kg.
`Cn1nc(-c2ccc(S(C)(=O)=O)cc2)s/c1=N\C1CCCC(O)C1` (stereo in doubt): the CL_Ratio in data set [6] was 93%. Also, in data set [1] (read-out: Vd), the Vd worked out at 0.92 L/kg. Also, the half-life in data set [2] was 2 h. For the same molecule, the bioavailability in data set [3] was 100%. Also, the solubility in data set [4] (read-out: Solubility) was found to be 135 µg/mL (≈ 367 µM). Moreover, in data set [5], the clearance was found to be 12.2 mL/min/kg.
Consider `Cn1nc(-c2ccc(S(C)(=O)=O)cc2)s/c1=N\C1CCCC(O)C1` (stereo in doubt; 21a 9(R,R)), for which the CL_Ratio in data set [6] is 91%. The molecule also yielded a Vd in data set [1] of 0.62 L/kg. In addition, the T1/2 in data set [2] was 2.5 h. Further, in data set [4], the solubility was 160 µg/mL (≈ 435 µM). In data set [5], this molecule returned a Cl of 15.1 mL/min/kg.
For `Cn1nc(-c2ccc(C(N)=O)cc2)s/c1=N\C1CCCC(O)C1` (stereo in doubt; cis), the midpoint of inhibition in data set [8], the IC50, lay at 1.65 µM. Moreover, the distribution volume (Vd) in data set [1] (read-out: Vd) amounted to 1.39 L/kg. For the same molecule, the half-life in data set [2] is 1.42 h. For the same molecule, the F in data set [3] was found to be 61.2%. In addition, the CL_Ratio in data set [7] is given as 81%. The clearance in data set [5] is 34.4 mL/min/kg.
`Cn1nc(-c2ccc(C(N)=O)cc2)s/c1=N\C1CCCC(O)C1` (stereo in doubt; trans): the volume of distribution (Vd) in data set [1] came out at 1.78 L/kg. In data set [2], this molecule registered a T1/2 of 1.8 h. The F in data set [3] was found to be 38.5%. The CL_Ratio in data set [7] came out at 67%. Moreover, the Cl in data set [5] is 59.9 mL/min/kg.
Take `Cn1nc(-c2ccc(C(N)=O)cc2)s/c1=N\C1CCCCC1O` (stereo in doubt; trans): the distribution volume (Vd) in data set [1] (read-out: Vd) is 1.47 L/kg. In data set [2], this molecule gave a half-life of 0.31 h. In data set [3], this molecule had a bioavailability of 24.7%. Besides, the CL_Ratio in data set [7] is given as 79%. In addition, the clearance in data set [5] was found to be 38.2 mL/min/kg.
In the case of `CC(=O)Nc1ccc(-c2nn(C)/c(=N/C3CCCC(O)C3)s2)cc1` (trans isomer), in data set [6], the CL_Ratio was found to be 92%. Also, the Vd in data set [1] (read-out: Vd) came to 2.02 L/kg. Also, in data set [2], the half-life is 2.3 h. Moreover, the bioavailability in data set [3] worked out at 76%. Further, the solubility in data set [4] (read-out: Solubility) was determined as 350 µg/mL (≈ 1010 µM). In addition, the clearance in data set [5] is 13.3 mL/min/kg.
